Assay results taken from US4340602A, “Compositions inhibiting estrogen sulfotransferase activity” (Wayne State University, priority 1978, dated 1982).

Molecular target: T1, Bovine Adrenal Estrogen Sulfotransferase (Bos taurus, UniProt P19217)
T1 construct: The enzyme was isolated from the bovine adrenals; from tissue; host or cells: bovine adrenals; purified by ammonium sulfate fractionation and chromatography on DEAE-cellulose or DEAE-Sephadex A-50
T1 sequence (P19217 1-295): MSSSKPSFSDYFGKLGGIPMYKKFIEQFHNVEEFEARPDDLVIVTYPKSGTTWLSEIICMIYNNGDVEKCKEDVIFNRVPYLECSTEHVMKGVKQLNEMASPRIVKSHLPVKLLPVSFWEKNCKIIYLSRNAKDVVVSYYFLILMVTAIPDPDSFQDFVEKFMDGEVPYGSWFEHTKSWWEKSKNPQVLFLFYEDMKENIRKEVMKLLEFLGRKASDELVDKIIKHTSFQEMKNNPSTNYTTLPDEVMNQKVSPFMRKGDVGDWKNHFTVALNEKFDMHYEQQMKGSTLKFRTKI
Assay: Inhibition of bovine adrenal estrogen sulfotransferase (estrone sulfurylation)
Assay type: biochemical
Method: Materials are evaluated for activity as estrogen sulfotransferase inhibitors by the method of Rozhin et al, Journal of Biological Chemistry, 252:7214-7220 (October 25, 1977), herein incorporated by reference.
Isolation of Estrogen Sulfotransferase (EC 2.8.2.4). The enzyme was isolated from the bovine adrenals and purified by ammonium sulfate fractionation and column chromatography on DEAE-cellulose or DEAE-SephadexA-50 [Rozhin et al (1974)].
Standard Enzyme Assay. The incubation mixtures contained the following in a total volume of 0.2 ml: 0.4 mM P-Ado-PS; 2 to 23 μM estrone (3-hydroxy-1,3,5(10)-estratriene-17-one), 5×10^5 dpm of [6,7-^3 H]estrone; 5 mM magnesium acetate; 0.19 M Tris/HCl buffer (pH 8.1 at 37°); 5 ug of the enzyme; and 25 μM dithiothreitol. After a 10-min incubation (in the presence of a constant amount of inhibitor and a variable amount of estrone), the boiled mixtures were supplemented with 5 μg of aqueous estrone sulfate. The remaining [^3 H]estrone was extracted three times with 0.3 ml of ethyl ether. The residual ether was removed and the volume adjusted to 0.5 ml with methanol. A sample (25 μl) was applied, together with 10 μg of methanolic estrone sulfate marker, to type SG chromatography media (Gelman Instrument Co., Ann Arbor, Mich.), and developed with chloroform/acetone/acetic acid (110:35:6). After drying the sheet, samples were visualized by spraying with methylene blue (25 mg in 100 ml of 0.05 N H2 SO4), punched out with a cork borer, and counted in 10 ml of dioxane counting liquid. A blank employing a boiled enzyme sample was incubated and the recorded counts were substracted from each determination. The total corrected counts, representing steroid sulfate ester, were converted to nanomoles utilizing the specific activity of [^3 H]estrone. An enzyme unit was defined as that quantity of enzyme which synthesized 1 nmol of estrone sulfate in 1 min under chosen conditions. […] When nonsubstrate steroids were used as the inhibitors, the procedure for the enzyme assay was as described earlier [Rozhin et al (1974)], utilizing 5 μg of enzyme, P-Ado-[^35 S]PS, and unlabeled estrone.
Data Processing. The initial velocity analysis was carried out keeping the concentration of P-Ado-PS at saturation level, varying the estrone concentration and keeping the concentration of the inhibitor at a fixed level. Preliminary plots of the data were made in the double reciprocal form (l/v versus l/[S]), and in the form of replots of slopes (and intercepts) versus inhibitor concentration. On the basis of these plots, the proper inhibition pattern was chosen for each experiment and the data points were fitted to the appropriate equation.
Linear competitive inhibition: [formula]
Hyperbolic competitive inhibition: [formula]
Slope-parabolic non-competitive inhibition: [formula]
All calculations were performed using Cleland's Fortran programs (Adv. Enzymol., 29:1-32). The programs gave the values of Km, Vmax, and inhibition constants.
Fractional Inhibition. From kinetic experiments, Ki was calculated as described above under "Data Processing" after making replots of slopes (and/or intercepts) versus inhibitor concentration. […] Substituting v and vi from the corresponding rate equations in the absence of (v=(Vmax [S])/(Km +[S])) and presence of a (competitive) inhibition (Equation 1), the following relationship for FI is obtained: [formula] After substituting [S], Km, and [I] (see above), the equation for the fractional (competitive) inhibition simplifies to: [formula] and the mathematical relationship between FI and Ki of competitive inhibitors is represented by the continuous curve in FIG. 2 in Rozhin et al., J. Biol. Chem., 252, 7214-7220, 1977. The dashed line represents the relationship between FI and the Ki of pure noncompetitive inhibition derived mathematically in an analogous manner and expressed as [formula] Since [I]=22.2 μM, [formula]

Ki (inhibitors 3 to 6, 12 and 16, from kinetic experiments, read-out: Ki (Table I), determined experimentally): 6.1 µM
inhibition at 22.2 µM (pH 8.1, read-out: Fractional Inhibition (Table I)): 68%
SMILES: C[C@]12CC[C@@H]3c4ccc(O)cc4CC[C@H]3[C@@H]1CC[C@@H]2O [1,3,5(10)Estratriene-3,17β-diol]
